Source: ChEMBL document CHEMBL1153694, “Non-hinge-binding pyrazolo[1,5-a]pyrimidines as potent B-Raf kinase inhibitors” (Bioorg Med Chem Lett, 2009)

Assays:
WM-266-4 (Homo sapiens) [1] = experiment: Cytotoxicity against human WM-266-4 cells expressing B-Raf mutant
[2] = Cytotoxicity against human HT-29 cells expressing B-Raf mutant
[3] = molecular target: Serine/threonine-protein kinase B-raf (Homo sapiens, UniProt P15056); experiment: Inhibition of human recombinant B-Raf expressed in Sf9 cells
Serine/threonine-protein kinase B-raf, sequence (P15056 whole entry): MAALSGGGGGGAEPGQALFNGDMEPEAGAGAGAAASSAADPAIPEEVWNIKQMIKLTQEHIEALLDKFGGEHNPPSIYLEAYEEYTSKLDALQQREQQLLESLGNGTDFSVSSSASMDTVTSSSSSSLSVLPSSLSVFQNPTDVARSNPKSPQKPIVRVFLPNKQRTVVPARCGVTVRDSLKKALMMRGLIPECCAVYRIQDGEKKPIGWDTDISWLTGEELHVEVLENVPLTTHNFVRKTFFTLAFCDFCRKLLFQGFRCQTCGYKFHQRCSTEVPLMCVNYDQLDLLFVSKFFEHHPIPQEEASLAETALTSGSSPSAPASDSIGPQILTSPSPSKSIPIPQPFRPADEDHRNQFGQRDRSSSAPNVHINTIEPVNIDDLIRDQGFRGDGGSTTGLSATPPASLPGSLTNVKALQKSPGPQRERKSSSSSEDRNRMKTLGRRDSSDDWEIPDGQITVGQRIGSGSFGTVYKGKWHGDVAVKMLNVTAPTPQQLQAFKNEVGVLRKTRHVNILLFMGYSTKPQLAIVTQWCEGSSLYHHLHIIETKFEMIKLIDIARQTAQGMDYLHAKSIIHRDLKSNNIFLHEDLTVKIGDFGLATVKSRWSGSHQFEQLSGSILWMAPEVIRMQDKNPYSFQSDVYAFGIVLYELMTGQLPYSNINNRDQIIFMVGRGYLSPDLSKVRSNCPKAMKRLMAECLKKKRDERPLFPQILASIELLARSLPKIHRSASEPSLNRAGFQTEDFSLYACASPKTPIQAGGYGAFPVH

in vitro = conditions: rat, liver microsomes
WM-266-4 (Homo sapiens) [4] = experiment: Cytotoxicity against human WM266.4 cells expressing B-Raf mutant
[5] = molecular target: Mitogen-activated protein kinase 14 (Homo sapiens, UniProt Q16539); experiment: Inhibition of p38alpha
Mitogen-activated protein kinase 14, sequence (Q16539 whole entry): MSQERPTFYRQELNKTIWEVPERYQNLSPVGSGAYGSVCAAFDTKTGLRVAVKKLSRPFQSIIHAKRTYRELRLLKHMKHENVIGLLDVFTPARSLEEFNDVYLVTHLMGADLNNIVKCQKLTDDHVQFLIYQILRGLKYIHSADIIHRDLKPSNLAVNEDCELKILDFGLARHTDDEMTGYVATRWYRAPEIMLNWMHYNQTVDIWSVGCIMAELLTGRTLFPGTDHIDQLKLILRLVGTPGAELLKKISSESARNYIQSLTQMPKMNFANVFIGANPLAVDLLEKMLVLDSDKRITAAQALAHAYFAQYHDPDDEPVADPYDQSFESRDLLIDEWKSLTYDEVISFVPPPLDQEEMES

[6] = molecular target: Proto-oncogene tyrosine-protein kinase Src (Homo sapiens, UniProt P12931); experiment: Inhibition of SRC
Proto-oncogene tyrosine-protein kinase Src, sequence (P12931 2-536 limits assumed): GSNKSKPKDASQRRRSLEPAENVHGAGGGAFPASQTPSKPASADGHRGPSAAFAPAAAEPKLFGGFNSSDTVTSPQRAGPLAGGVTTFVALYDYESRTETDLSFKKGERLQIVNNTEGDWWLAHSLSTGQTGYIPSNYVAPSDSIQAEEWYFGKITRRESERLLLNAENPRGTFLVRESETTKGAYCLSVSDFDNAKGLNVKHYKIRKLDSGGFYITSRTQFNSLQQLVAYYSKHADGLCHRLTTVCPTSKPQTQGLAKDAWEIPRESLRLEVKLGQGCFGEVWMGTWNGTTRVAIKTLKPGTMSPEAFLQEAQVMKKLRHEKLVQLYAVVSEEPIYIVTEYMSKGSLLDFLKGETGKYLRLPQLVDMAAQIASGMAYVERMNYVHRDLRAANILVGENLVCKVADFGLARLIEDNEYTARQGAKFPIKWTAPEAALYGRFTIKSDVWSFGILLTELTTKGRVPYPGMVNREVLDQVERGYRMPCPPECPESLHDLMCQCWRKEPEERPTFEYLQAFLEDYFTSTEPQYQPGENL

[7] = molecular target: Phosphatidylinositol 4,5-bisphosphate 3-kinase catalytic subunit alpha isoform (Homo sapiens, UniProt P42336); experiment: Inhibition of PI3Kalpha
Phosphatidylinositol 4,5-bisphosphate 3-kinase catalytic subunit alpha isoform, sequence (P42336 whole entry, canonical isoform): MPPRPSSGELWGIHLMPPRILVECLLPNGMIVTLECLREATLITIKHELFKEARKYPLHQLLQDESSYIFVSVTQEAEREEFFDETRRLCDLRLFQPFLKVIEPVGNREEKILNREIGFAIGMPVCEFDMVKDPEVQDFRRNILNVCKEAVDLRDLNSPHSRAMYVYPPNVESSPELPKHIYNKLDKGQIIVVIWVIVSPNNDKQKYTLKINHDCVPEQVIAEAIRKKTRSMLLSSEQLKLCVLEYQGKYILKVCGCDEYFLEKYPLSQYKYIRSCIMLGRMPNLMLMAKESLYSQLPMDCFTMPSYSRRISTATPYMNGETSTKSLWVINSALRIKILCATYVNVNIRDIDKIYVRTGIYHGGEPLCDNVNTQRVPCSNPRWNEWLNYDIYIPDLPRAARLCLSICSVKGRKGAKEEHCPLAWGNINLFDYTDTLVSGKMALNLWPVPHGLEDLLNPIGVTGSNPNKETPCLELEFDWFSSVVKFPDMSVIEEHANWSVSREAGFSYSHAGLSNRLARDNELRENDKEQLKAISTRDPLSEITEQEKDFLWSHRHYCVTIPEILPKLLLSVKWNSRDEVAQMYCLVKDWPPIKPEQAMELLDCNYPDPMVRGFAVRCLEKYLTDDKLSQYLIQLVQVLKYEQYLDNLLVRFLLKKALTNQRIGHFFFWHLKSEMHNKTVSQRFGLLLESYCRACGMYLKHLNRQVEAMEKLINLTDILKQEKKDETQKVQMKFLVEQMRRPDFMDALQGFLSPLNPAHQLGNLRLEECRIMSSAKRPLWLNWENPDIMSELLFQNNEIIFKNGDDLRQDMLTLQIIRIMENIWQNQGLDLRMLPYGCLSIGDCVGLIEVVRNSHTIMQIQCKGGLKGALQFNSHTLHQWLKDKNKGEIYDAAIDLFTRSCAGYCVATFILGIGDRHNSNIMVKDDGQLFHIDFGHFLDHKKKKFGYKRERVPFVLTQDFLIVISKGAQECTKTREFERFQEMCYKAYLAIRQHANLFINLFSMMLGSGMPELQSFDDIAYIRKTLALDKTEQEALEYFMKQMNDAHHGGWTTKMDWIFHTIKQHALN

[8] = molecular target: Cyclin-dependent kinase 4 (Homo sapiens, UniProt P11802); experiment: Inhibition of CDK4
Cyclin-dependent kinase 4, sequence (P11802 whole entry): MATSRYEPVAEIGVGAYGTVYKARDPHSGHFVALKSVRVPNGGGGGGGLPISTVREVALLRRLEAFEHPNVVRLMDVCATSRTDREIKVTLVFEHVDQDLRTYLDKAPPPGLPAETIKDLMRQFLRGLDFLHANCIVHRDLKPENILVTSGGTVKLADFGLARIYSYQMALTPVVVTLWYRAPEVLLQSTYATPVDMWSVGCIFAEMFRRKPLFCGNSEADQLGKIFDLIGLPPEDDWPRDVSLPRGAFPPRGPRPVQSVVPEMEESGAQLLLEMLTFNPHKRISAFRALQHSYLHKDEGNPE

[9] = molecular target: T1, Inhibitor of nuclear factor kappa-B kinase subunit beta (Homo sapiens, UniProt O14920); experiment: Inhibition of IKK-beta
T1 sequence (O14920 whole entry): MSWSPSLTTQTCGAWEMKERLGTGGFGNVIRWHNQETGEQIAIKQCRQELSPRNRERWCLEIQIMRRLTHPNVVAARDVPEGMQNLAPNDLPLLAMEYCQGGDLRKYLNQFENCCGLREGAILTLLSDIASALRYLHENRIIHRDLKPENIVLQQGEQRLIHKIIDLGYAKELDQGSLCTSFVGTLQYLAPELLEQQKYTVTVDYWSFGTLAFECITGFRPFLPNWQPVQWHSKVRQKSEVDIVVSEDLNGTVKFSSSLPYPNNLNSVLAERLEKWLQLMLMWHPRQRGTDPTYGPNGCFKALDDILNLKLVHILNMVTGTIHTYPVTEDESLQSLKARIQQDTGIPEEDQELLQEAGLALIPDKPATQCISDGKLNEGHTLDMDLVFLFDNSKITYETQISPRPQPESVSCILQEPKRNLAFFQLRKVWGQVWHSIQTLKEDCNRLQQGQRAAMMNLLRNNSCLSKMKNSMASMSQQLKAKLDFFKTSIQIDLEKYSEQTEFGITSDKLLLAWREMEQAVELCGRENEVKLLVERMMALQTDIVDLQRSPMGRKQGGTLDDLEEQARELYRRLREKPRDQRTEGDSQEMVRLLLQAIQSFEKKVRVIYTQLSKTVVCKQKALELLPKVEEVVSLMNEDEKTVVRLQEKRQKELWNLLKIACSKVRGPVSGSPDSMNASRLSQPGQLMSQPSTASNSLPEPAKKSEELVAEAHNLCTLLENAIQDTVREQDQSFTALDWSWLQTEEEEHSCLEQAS

[10] = molecular target: T2, Dual specificity mitogen-activated protein kinase kinase 6 (Homo sapiens, UniProt P52564); experiment: Inhibition of MKK6
T2 sequence (P52564 whole entry): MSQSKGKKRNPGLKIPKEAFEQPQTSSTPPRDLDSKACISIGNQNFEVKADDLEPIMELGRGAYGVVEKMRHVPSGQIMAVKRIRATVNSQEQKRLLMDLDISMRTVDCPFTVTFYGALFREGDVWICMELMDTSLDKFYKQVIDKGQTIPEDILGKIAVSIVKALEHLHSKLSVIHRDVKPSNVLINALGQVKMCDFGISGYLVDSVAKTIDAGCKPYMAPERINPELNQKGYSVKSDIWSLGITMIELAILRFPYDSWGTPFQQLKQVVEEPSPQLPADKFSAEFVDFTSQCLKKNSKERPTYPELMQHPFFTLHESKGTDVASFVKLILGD

[11] = molecular target: Mitogen-activated protein kinase 8 (Homo sapiens, UniProt P45983); experiment: Inhibition of JNK1
Mitogen-activated protein kinase 8, sequence (P45983 whole entry): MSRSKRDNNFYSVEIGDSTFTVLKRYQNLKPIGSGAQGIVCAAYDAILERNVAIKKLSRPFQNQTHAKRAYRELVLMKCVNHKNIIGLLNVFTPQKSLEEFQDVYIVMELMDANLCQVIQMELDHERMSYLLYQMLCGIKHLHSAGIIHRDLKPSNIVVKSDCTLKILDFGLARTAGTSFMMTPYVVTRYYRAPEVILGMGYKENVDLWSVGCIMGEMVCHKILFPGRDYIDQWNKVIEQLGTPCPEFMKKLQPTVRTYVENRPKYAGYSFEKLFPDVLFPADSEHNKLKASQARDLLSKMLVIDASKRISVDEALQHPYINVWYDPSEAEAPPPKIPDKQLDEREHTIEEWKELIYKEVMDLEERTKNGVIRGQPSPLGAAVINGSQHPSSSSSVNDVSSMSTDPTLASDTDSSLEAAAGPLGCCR

[12] = molecular target: MAP kinase-activated protein kinase 2 (Homo sapiens, UniProt P49137); experiment: Inhibition of MK2
MAP kinase-activated protein kinase 2, sequence (P49137 whole entry): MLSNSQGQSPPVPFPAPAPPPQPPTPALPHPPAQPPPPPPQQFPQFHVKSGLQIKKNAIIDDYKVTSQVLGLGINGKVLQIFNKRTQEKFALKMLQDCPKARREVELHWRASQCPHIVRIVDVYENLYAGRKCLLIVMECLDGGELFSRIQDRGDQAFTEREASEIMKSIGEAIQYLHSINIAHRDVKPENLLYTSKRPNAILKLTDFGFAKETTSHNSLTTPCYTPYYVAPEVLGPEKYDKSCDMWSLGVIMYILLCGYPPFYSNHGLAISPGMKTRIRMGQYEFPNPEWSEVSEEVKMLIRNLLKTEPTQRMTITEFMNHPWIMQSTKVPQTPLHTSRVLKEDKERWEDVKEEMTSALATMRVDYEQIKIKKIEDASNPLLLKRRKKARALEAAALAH

[13] = Inhibition of PKA
[14] = molecular target: Ribosomal protein S6 kinase beta-1 (Homo sapiens, UniProt P23443); experiment: Inhibition of p70S6K
Ribosomal protein S6 kinase beta-1, sequence (P23443 whole entry): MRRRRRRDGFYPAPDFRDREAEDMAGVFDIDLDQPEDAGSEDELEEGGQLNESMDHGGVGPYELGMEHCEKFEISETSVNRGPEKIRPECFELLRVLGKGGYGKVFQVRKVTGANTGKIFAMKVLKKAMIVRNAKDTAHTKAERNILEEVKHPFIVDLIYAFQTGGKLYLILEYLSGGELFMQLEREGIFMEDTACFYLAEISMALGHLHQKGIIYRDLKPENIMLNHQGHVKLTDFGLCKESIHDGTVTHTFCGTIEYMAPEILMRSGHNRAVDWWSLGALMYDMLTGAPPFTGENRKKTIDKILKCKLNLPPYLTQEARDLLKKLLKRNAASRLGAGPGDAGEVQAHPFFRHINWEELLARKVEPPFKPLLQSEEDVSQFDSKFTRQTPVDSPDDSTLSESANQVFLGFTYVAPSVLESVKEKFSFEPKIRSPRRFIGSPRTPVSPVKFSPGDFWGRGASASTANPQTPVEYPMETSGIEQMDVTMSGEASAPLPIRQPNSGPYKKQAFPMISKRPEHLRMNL

[15] = Inhibition of CAMK2
[16] = molecular target: Cyclin-dependent kinase 2 (Homo sapiens, UniProt P24941); experiment: Inhibition of CDK2
[17] = molecular target: Protein kinase C alpha type (Homo sapiens, UniProt P17252); experiment: Inhibition of PKCalpha
[18] = molecular target: Serine/threonine-protein kinase PLK1 (Homo sapiens, UniProt P53350); experiment: Inhibition of PLK1
Serine/threonine-protein kinase PLK1, sequence (P53350 whole entry): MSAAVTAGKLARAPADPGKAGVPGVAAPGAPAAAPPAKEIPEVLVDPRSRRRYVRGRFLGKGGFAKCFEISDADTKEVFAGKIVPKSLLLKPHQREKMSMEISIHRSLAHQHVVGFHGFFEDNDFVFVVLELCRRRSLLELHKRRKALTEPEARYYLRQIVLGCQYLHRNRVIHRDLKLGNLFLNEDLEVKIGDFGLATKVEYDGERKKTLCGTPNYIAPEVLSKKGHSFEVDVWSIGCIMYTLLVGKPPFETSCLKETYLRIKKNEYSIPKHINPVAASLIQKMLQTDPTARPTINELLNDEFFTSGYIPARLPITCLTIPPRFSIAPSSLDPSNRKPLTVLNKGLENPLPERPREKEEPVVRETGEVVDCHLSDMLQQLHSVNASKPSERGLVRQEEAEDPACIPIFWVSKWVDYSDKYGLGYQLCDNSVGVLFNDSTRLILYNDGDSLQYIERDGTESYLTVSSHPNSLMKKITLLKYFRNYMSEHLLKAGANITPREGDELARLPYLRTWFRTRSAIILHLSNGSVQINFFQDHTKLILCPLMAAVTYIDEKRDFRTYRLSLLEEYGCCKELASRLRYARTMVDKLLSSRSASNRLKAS

| IC50 [3] | SMILES | IC50 [2] | IC50 (WM-266-4 (Homo sapiens) [4]) | other results |
| --- | --- | --- | --- | --- |
| – | NC(=O)c1cccc(-c2cnn3c(-c4cccc(NC(=O)c5cccc(C(F)(F)F)c5)c4)ccnc23)c1 | 3200 nM | – | IC50 (WM-266-4 (Homo sapiens) [1]): 3700 nM |
| – | CN(C)CCc1ccc(-c2cnn3c(-c4cccc(NC(=O)c5cccc(C(F)(F)F)c5)c4)ccnc23)cc1 | 730 nM | 740 nM | – |
| – | CN(C)Cc1ccc(-c2cnn3c(-c4cccc(NC(=O)c5cccc(C(F)(F)F)c5)c4)ccnc23)cc1 | 780 nM | – | IC50 [5]: 216 nM; IC50 [6]: > 2000 nM; IC50 [7]: > 2000 nM; IC50 [8]: > 2000 nM; IC50 [9]: > 2000 nM; half-life (in vitro): 6 min; IC50 [10]: > 2000 nM; IC50 [11]: > 2000 nM; IC50 [12]: > 2000 nM; IC50 [13]: > 2000 nM; IC50 [14]: > 2000 nM; IC50 [15]: 822 nM; IC50 [16]: > 2000 nM; IC50 [17]: > 2000 nM; IC50 [18]: > 2000 nM |
| – | CN(C)Cc1ccccc1-c1cnn2c(-c3cccc(NC(=O)c4cccc(C(F)(F)F)c4)c3)ccnc12 | 2900 nM | 2900 nM | – |
| 98 nM | COc1ccc(NC(=O)c2cccc(C(F)(F)F)c2)cc1-c1ccnc2c(-c3cn[nH]c3)cnn12 | 2900 nM | – | – |
| 308 nM | CN(C)c1ccc(-c2cnn3c(-c4cccc(NC(=O)c5cccc(C(F)(F)F)c5)c4)ccnc23)cc1 | – | > 10000 nM | – |
| 34 nM | CN(C)CC(=O)Nc1ccc(-c2cnn3c(-c4cccc(NC(=O)c5cccc(C(F)(F)F)c5)c4)ccnc23)cc1 | 770 nM | – | – |
| – | CN1CCN(CCCC#Cc2cnn3c(-c4cccc(NC(=O)c5cccc(C(F)(F)F)c5)c4)ccnc23)CC1 | 2600 nM | 1400 nM | half-life (in vitro): 3 min |
| – | CN(C)CCc1cccc(-c2cnn3c(-c4cccc(NC(=O)c5cccc(C(F)(F)F)c5)c4)ccnc23)c1 | 650 nM | – | – |
| 42 nM | O=C(Nc1ccc(Cl)c(-c2ccnc3c(-c4cn[nH]c4)cnn23)c1)c1cccc(C(F)(F)F)c1 | 2900 nM | – | – |
| – | CN(C)CC(=O)Nc1cccc(-c2cnn3c(-c4cccc(NC(=O)c5cccc(C(F)(F)F)c5)c4)ccnc23)c1 | 800 nM | – | – |
| – | O=C(Nc1cccc(-c2ccnc3c(-c4cnn(CCN5CCCC5)c4)cnn23)c1)c1cccc(C(F)(F)F)c1 | 2800 nM | 3300 nM | half-life (in vitro): 26 min |
| – | Nc1ccc(-c2cnn3c(-c4cccc(NC(=O)c5cccc(C(F)(F)F)c5)c4)ccnc23)cn1 | 2400 nM | 3400 nM | – |
| – | CN(C)CCNc1ccc(-c2cnn3c(-c4cccc(NC(=O)c5cccc(C(F)(F)F)c5)c4)ccnc23)cn1 | 460 nM | – | – |
| – | O=C(Nc1cccc(-c2ccnc3c(C#CCCCN4CCOCC4)cnn23)c1)c1cccc(C(F)(F)F)c1 | 3500 nM | 5500 nM | half-life (in vitro): > 30 min |
| 20 nM | O=C(Nc1cccc(-c2ccnc3c(-c4ccc(CN5CCCC5)cc4)cnn23)c1)c1cccc(C(F)(F)F)c1 | 650 nM | – | half-life (in vitro): 27 min |
| – | O=C(Nc1cccc(-c2ccnc3c(-c4coc(CN5CCCC5)c4)cnn23)c1)c1cccc(C(F)(F)F)c1 | 2200 nM | 3200 nM | – |
| – | O=C(Nc1cccc(-c2ccnc3c(-c4cn[nH]c4)cnn23)c1)c1cccc(C(F)(F)F)c1 | 2800 nM | – | – |
| – | CN(C)Cc1cccc(-c2cnn3c(-c4cccc(NC(=O)c5cccc(C(F)(F)F)c5)c4)ccnc23)c1 | 800 nM | – | – |
| 44 nM | CN1CCN(c2ccc(-c3cnn4c(-c5cccc(NC(=O)c6cccc(C(F)(F)F)c6)c5)ccnc34)cn2)CC1 | 310 nM | – | – |
| 139 nM | COCCOCC(=O)Nc1ccc(-c2cnn3c(-c4cccc(NC(=O)c5cccc(C(F)(F)F)c5)c4)ccnc23)cc1 | 3900 nM | > 10000 nM | – |
| 113 nM | O=C(Nc1cccc(-c2ccnc3c(-c4cccnc4)cnn23)c1)c1cccc(C(F)(F)F)c1 | – | – | – |
| – | CN(C)CCc1ccccc1-c1cnn2c(-c3cccc(NC(=O)c4cccc(C(F)(F)F)c4)c3)ccnc12 | 840 nM | – | – |

| SMILES | IC50 [3] | IC50 [2] | IC50 (WM-266-4 (Homo sapiens) [4]) | other results |
| --- | --- | --- | --- | --- |
| O=C(Nc1ccc(F)c(-c2ccnc3c(-c4cn[nH]c4)cnn23)c1)c1cccc(C(F)(F)F)c1 | 18 nM | 2800 nM | – | – |
| CN1CCN(Cc2ccc(-c3cnn4c(-c5cccc(NC(=O)c6cccc(C(F)(F)F)c6)c5)ccnc34)cc2)CC1 | 38 nM | 700 nM | – | half-life (in vitro): 3 min |
| O=C(Nc1cccc(-c2ccnc3c(-c4cnc(N5CCOCC5)nc4)cnn23)c1)c1cccc(C(F)(F)F)c1 | 941 nM | – | – | – |
| CN1CCN(c2ccc(-c3cnn4c(-c5cc(NC(=O)c6cccc(C(F)(F)F)c6)ccc5F)ccnc34)cn2)CC1 | 30 nM | 630 nM | – | – |
| CCN1CCN(Cc2cc(-c3cnn4c(-c5cccc(NC(=O)c6cccc(C(F)(F)F)c6)c5)ccnc34)co2)CC1 | 219 nM | 1700 nM | 2900 nM | – |
